Results taken from ChEMBL document CHEMBL5649167, “The SUV4-20 inhibitor A-196 verifies a role for epigenetics in genomic integrity” (Nat Chem Biol, 2017).
Activity calls are given as the source filed them. The rule behind the calls is not given here.

Experiments:
[1] = biological target: Vasopressin V1a receptor (Homo sapiens) (UniProt P37288); experiment: Inhibition of human AVPR V1a at 10 uM relative to control
[2] = biological target: 5-hydroxytryptamine receptor 5A (Homo sapiens) (UniProt P47898); experiment: Inhibition of human HTR5A expressed in Cricetulus griseus Flp-In-CHO cells at 10 uM relative to control; format: cell-based
[3] = system: LNCaP; experiment: Cytotoxicity against human LNCaP cells assessed as cell viability upto 12.5 uM incubated for 48 hrs; format: functional, cell-based
[4] = biological target: Beta-2 adrenergic receptor (Homo sapiens) (UniProt P07550); experiment: Inhibition of human Beta-2 adrenergic receptor at 10 uM relative to control
[5] = biological target: Muscarinic acetylcholine receptor M5 (Homo sapiens) (UniProt P08912); experiment: Inhibition of human Muscarinic acetylcholine receptor M5 expressed in stable Cricetulus griseus CHO cells at 10 uM relative to control; format: cell-based
[6] = biological target: Type-1 angiotensin II receptor (Homo sapiens) (UniProt P30556); experiment: Inhibition of human AT1 at 10 uM relative to control
[7] = biological target: Alpha-1A adrenergic receptor (Homo sapiens) (UniProt P35348); experiment: Inhibition of human Alpha-1A adrenergic receptor at 10 uM relative to control
[8] = biological target: 3-phosphoinositide-dependent protein kinase 1 (Homo sapiens) (UniProt O15530); experiment: Inhibition of human PDK1 at 10 uM relative to control
[9] = biological target: Serine/threonine-protein kinase Sgk1 (Homo sapiens) (UniProt O00141); experiment: Inhibition of human SGK1 at 10 uM relative to control
[10] = organism: Rattus norvegicus; experiment: Inhibition of Rat GABAA at 10 uM in the presence of 3H and BZP relative to control
[11] = biological target: Alpha-1B adrenergic receptor (Homo sapiens) (UniProt P35368); experiment: Inhibition of human Alpha-1B adrenergic receptor expressed in HEK293T cells at 10 uM relative to control; format: cell-based
[12] = system: Embryonic stem cell; experiment: Antiproliferative activity against mouse Embryonic stem cell assessed as reduction in H4K20me3 at 10 uM incubated for 3 days by immunofluorescence analysis; format: functional, cell-based; settings: time 3.0 day
[13] = biological target: Prostaglandin E2 receptor EP4 subtype (Homo sapiens) (UniProt P35408); experiment: Inhibition of human Prostanoid EP4 receptor at 10 uM relative to control
[14] = biological target: Cholecystokinin receptor type A (Homo sapiens) (UniProt P32238); experiment: Inhibition of human CCK1 at 10 uM relative to control
[15] = organism: Homo sapiens; experiment: Inhibition of human 5-HT3 at 10 uM relative to control
[16] = biological target: Delta-type opioid receptor (Homo sapiens) (UniProt P41143); experiment: Inhibition of human Delta-type opioid receptor at 10 uM relative to control
[17] = biological target: DNA (cytosine-5)-methyltransferase 1 (Homo sapiens) (UniProt P26358); experiment: Inhibition of DNMT1 (unknown origin) using dsDNA as substrate at 1 to 10 uM incubated for 1 hrs in the presence of [3H-SAM] by scintillation proximity assay; settings: dose 1-10 µM
[18] = system: U2OS; experiment: Induction of DNA repair in human U2OS cells assessed as inhibition in 53BP1 foci formation at 1 uM measured after 24 hrs in the presence of 10 Gy of ionizing radiation by immunofluorescence analysis; format: functional, cell-based
[19] = biological target: 5-hydroxytryptamine receptor 6 (Homo sapiens) (UniProt P50406); experiment: Inhibition of human 5-HT6 expressed in stable HEK cells at 10 uM relative to control; format: cell-based
[20] = biological target: D(2) dopamine receptor (Homo sapiens) (UniProt P14416); experiment: Inhibition of human D(2) dopamine receptor at 10 uM relative to control
[21] = system: U2OS; experiment: Induction of DNA repair in human U2OS cells expressing I-SceI reporter assessed as substantially inhibition in NHEJ-mediated repair at 1 uM by flow cytometry analysis; format: functional, cell-based
[22] = organism: Rattus norvegicus; experiment: Inhibition of Rat alpha 1-Adrenoceptor at 10 uM relative to control
[23] = biological target: 5-hydroxytryptamine receptor 1D (Homo sapiens) (UniProt P28221); experiment: Inhibition of human 5-HT1D expressed in HEK293T cells at 10 uM relative to control; format: cell-based
[24] = biological target: Cyclin-dependent kinase 2 (Homo sapiens) (UniProt P24941); experiment: Inhibition of human CDK2 at 10 uM relative to control
[25] = biological target: Glycogen synthase kinase-3 beta (Homo sapiens) (UniProt P49841); experiment: Inhibition of human GSK3beta at 10 uM relative to control
[26] = biological target: Sigma intracellular receptor 2 (Homo sapiens) (UniProt Q5BJF2); experiment: Inhibition of human Sigma intracellular receptor 2 at 10 uM relative to control; format: cell-based
[27] = biological target: Delta-type opioid receptor (Homo sapiens) (UniProt P41143); experiment: Inhibition of human Delta-type opioid receptor expressed in stable HEK cells at 10 uM relative to control; format: cell-based
[28] = biological target: 5-hydroxytryptamine receptor 7 (Homo sapiens) (UniProt P34969); experiment: Inhibition of human 5-HT7 at 10 uM relative to control
[29] = biological target: 5-hydroxytryptamine receptor 2A (Homo sapiens) (UniProt P28223); experiment: Inhibition of human 5-HT2A at 10 uM relative to control
[30] = biological target: Melanocortin receptor 4 (Homo sapiens) (UniProt P32245); experiment: Inhibition of human Melanocortin receptor 4 at 10 uM relative to control
[31] = biological target: 5-hydroxytryptamine receptor 5A (Homo sapiens) (UniProt P47898); experiment: Inhibition of human 5-HT5a at 10 uM relative to control
[32] = system: LNCaP; experiment: Cytotoxicity against human LNCaP cells assessed as cell viability at 1.5 to 100 uM incubated after 72 hrs; format: functional, cell-based; settings: dose 1.5-100 µM
[33] = biological target: 5-hydroxytryptamine receptor 6 (Homo sapiens) (UniProt P50406); experiment: Inhibition of human 5-HT6 at 10 uM relative to control
[34] = biological target: Histone-lysine N-methyltransferase KMT5B (Homo sapiens) (UniProt Q4FZB7); experiment: Binding affinity to recombinant human 6His-(Tev)-G-SUV420H1 (69 to 335 residues) assessed as increase thermal stability by measuring change in melting temperature at 50 uM by thermal shift assay
[35] = biological target: Neuromedin-K receptor (Homo sapiens) (UniProt P29371); experiment: Inhibition of human Neuromedin-K receptor at 10 uM relative to control
[36] = biological target: Mu-type opioid receptor (Homo sapiens) (UniProt P35372); experiment: Inhibition of human Mu-type opioid receptor expressed in stable HEK cells at 10 uM relative to control; format: cell-based
[37] = biological target: Histamine H2 receptor (Homo sapiens) (UniProt P25021); experiment: Inhibition of human Histamine H2 receptor expressed in stable HEK cells at 10 uM relative to control; format: cell-based
[38] = biological target: Substance-K receptor (Homo sapiens) (UniProt P21452); experiment: Inhibition of human Substance-K receptor at 10 uM relative to control
[39] = biological target: Melatonin receptor type 1A (Homo sapiens) (UniProt P48039); experiment: Inhibition of human Melatonin receptor type 1A at 10 uM relative to control
[40] = biological target: Sodium-dependent dopamine transporter (Homo sapiens) (UniProt Q01959); experiment: Inhibition of human Sodium-dependent dopamine transporter at 10 uM relative to control
[41] = organism: Homo sapiens; experiment: Inhibition of GABAA (unknown origin) at 10 uM relative to control

Chain of 5-hydroxytryptamine receptor 5A (Homo sapiens) (P47898 whole entry): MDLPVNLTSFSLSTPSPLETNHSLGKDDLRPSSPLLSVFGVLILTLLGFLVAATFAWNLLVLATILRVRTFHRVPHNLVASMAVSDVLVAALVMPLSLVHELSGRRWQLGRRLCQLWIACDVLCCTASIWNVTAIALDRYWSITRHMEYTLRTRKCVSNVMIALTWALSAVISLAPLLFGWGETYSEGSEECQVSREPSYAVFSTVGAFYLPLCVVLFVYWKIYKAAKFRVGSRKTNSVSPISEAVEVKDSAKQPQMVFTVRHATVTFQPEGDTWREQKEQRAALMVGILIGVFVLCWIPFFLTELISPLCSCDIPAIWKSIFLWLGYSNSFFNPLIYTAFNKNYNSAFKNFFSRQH
Chain of Delta-type opioid receptor (Homo sapiens) (P41143 whole entry): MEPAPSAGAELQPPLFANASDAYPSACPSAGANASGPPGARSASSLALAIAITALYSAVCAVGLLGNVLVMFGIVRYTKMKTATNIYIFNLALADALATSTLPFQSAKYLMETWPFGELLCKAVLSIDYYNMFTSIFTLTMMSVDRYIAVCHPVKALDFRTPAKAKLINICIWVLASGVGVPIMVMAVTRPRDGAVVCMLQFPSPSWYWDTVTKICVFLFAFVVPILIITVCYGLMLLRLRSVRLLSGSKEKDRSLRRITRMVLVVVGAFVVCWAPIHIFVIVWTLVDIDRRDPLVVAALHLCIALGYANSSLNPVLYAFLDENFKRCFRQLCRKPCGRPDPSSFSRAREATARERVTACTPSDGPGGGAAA
Chain of 5-hydroxytryptamine receptor 6 (Homo sapiens) (P50406 whole entry, the tested form may be a part): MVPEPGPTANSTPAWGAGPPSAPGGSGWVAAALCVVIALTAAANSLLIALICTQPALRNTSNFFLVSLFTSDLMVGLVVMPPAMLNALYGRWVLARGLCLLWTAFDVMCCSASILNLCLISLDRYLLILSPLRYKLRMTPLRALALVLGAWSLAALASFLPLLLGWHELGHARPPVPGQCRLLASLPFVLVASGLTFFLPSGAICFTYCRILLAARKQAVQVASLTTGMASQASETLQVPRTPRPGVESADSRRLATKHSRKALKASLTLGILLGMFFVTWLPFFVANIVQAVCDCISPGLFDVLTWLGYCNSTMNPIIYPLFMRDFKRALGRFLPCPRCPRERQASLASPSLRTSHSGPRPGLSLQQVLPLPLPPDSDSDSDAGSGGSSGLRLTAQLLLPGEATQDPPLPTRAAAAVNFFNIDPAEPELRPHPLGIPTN
Chain of Substance-K receptor (Homo sapiens) (P21452 whole entry): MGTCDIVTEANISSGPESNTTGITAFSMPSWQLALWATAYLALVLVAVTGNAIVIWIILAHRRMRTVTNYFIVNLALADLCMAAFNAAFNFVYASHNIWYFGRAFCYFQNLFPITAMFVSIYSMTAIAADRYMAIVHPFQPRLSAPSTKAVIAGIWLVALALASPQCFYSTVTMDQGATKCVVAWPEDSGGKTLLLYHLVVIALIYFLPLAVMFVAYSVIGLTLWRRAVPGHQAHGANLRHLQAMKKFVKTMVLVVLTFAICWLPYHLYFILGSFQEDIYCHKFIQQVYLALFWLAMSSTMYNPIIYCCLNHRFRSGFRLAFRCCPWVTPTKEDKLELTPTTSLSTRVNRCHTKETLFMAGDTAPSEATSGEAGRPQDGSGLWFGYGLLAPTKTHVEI
Chain of Neuromedin-K receptor (Homo sapiens) (P29371 whole entry): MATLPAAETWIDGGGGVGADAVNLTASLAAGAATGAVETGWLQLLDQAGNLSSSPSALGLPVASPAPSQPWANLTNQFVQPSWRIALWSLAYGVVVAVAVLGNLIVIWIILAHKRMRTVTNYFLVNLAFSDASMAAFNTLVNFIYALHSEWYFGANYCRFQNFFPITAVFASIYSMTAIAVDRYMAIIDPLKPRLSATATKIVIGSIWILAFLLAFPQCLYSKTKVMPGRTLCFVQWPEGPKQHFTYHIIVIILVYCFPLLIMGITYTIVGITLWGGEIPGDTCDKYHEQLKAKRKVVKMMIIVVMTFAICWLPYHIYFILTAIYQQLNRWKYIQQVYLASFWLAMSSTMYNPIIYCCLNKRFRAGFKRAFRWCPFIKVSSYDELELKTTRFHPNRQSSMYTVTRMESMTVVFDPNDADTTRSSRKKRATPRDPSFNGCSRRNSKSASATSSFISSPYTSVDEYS
Chain of Prostaglandin E2 receptor EP4 subtype (Homo sapiens) (P35408 whole entry): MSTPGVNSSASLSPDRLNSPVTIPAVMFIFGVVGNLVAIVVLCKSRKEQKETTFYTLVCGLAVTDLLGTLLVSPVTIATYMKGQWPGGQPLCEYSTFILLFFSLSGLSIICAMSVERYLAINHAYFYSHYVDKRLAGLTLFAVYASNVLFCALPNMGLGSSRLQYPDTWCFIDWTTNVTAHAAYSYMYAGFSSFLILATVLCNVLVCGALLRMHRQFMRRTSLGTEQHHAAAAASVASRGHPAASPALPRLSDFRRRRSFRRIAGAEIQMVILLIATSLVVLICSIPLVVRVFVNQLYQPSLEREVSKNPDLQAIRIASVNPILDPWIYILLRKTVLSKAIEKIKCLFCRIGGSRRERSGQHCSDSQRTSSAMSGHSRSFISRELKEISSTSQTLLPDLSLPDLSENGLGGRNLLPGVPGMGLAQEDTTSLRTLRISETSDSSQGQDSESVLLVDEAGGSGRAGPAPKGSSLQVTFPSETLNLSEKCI
Chain of Sodium-dependent dopamine transporter (Homo sapiens) (Q01959 whole entry): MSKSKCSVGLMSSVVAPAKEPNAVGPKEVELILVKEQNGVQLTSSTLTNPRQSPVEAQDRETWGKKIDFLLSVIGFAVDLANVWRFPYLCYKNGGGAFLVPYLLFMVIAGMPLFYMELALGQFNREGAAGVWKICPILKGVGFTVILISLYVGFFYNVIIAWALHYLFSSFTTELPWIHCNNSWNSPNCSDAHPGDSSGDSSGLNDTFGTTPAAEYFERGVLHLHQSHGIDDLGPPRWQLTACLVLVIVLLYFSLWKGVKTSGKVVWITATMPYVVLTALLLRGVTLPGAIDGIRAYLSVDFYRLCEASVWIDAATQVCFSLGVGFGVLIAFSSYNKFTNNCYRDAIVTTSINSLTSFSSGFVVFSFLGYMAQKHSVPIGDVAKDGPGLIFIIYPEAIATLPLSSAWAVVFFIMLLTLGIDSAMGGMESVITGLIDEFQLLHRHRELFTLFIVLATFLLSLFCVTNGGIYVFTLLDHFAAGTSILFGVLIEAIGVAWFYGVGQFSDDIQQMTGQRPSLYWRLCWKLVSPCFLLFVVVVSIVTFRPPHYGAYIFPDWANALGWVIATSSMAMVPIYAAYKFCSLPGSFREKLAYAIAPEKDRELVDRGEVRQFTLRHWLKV
Chain of Cholecystokinin receptor type A (Homo sapiens) (P32238 whole entry): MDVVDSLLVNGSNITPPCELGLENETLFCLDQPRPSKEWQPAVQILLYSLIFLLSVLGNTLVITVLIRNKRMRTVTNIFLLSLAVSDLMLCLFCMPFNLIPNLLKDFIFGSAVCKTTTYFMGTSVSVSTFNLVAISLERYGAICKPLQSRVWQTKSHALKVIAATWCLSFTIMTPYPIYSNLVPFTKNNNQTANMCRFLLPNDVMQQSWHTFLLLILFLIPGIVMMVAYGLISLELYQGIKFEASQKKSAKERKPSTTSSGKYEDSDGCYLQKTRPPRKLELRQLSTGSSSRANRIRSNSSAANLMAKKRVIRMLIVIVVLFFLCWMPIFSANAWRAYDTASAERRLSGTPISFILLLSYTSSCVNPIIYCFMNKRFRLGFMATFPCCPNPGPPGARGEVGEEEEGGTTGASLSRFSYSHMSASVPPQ
Chain of 5-hydroxytryptamine receptor 2A (Homo sapiens) (P28223 whole entry): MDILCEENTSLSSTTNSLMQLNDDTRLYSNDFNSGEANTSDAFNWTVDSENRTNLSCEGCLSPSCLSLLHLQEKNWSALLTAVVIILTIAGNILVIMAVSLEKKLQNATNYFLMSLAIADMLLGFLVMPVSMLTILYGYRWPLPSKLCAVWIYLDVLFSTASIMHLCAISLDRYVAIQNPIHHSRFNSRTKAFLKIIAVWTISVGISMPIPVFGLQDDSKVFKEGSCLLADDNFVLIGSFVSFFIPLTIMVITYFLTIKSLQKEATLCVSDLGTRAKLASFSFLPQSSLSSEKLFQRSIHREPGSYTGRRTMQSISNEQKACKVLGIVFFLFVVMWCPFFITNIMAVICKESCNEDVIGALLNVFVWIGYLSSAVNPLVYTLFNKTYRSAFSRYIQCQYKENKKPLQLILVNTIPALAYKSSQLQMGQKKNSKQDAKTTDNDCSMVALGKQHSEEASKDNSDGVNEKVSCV
Chain of 5-hydroxytryptamine receptor 7 (Homo sapiens) (P34969 whole entry): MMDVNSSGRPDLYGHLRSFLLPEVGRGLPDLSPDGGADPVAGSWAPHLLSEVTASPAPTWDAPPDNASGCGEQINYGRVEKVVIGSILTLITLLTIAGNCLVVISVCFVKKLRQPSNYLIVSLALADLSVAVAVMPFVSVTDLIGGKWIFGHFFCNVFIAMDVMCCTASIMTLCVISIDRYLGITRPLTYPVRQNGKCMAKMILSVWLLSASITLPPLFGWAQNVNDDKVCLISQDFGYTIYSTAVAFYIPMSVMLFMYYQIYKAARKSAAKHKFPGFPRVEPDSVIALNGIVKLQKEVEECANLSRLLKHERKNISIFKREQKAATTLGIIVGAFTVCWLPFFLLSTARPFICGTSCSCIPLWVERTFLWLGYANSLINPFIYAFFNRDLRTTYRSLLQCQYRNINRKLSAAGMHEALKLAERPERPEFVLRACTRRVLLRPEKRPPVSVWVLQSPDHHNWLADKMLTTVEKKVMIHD
Chain of Melanocortin receptor 4 (Homo sapiens) (P32245 whole entry): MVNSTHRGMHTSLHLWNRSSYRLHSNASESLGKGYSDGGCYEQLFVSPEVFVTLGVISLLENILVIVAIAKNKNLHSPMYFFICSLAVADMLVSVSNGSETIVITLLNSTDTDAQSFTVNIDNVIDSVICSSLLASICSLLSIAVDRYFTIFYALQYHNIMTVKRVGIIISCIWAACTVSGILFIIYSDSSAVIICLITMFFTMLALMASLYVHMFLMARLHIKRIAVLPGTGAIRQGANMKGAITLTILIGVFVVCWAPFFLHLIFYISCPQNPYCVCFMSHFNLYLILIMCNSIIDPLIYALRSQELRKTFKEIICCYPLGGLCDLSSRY

Row | inhibition [1] [%] | inhibition [2] [%] | inhibition [4] [%] | inhibition [5] [%] | inhibition [6] [%] | inhibition [7] [%] | inhibition [10] [%] | inhibition [11] [%] | inhibition [13] [%] | inhibition [14] [%] | inhibition [15] [%] | inhibition [16] [%] | inhibition [19] [%] | inhibition [20] [%] | inhibition [22] [%] | inhibition [23] [%] | inhibition [26] [%] | inhibition [27] [%] | inhibition [28] [%] | SMILES | Activity [12] | further results
1 | 4 | 5 | 9 | -1 | 10 | -3 | 5 | 1 | 7 | -2 | 4 | 51 | -2 | 3 | 5 | -8 | 1 | 11 | 6 | Clc1cc2c(NC3CCCC3)nnc(-c3ccncc3)c2cc1Cl | Active | Activity [3]: Active; inhibition [8]: -7%; inhibition [9]: -4%; inhibition [17]: inactive; inhibition [18]: Active; Activity [21]: Active; inhibition [24]: -1%; inhibition [25]: 1%; inhibition [29]: -1%; inhibition [30]: 14%; inhibition [31]: 9%; Activity [32]: Active; inhibition [33]: -1%; ΔTm [34]: 6.4 °C; inhibition [35]: 26%; inhibition [36]: 11%; inhibition [37]: -1%; inhibition [38]: 61%; inhibition [39]: 34%; inhibition [40]: 14%
2 | 96 | -1 | 10 | -4 | -7 | -9 | 29 | -4 | -2 | 7 | 6 | 6 | -1 | 13 | 12 | 1 | -1 | 8 | -3 | O=C(c1nnc(NC2CCCC2)c2cc(Cl)c(Cl)cc12)N1CCC(O)CC1 | inactive | inhibition [41]: 25%; inhibition [29]: -5%; inhibition [30]: -1%; inhibition [31]: 2%; inhibition [33]: -4%; inhibition [35]: 11%; inhibition [36]: 22%; inhibition [37]: -7%; inhibition [38]: 53%; inhibition [39]: 17%; inhibition [40]: -1%
